From paper PMC4263960 (Pediatric blood & cancer, 2013)

What was measured:
[1] = test system: OS-9 osteosarcoma xenograft; assay: PPTP in vivo xenograft testing, OS-9; design: species or system mice
EW8 Ewing xenograft = assay: PPTP in vivo xenograft testing, EW8; design: species or system mice
[2] = test system: Rh10 ALV rhabdomyosarcoma xenograft; assay: PPTP in vivo xenograft testing, Rh10; design: species or system mice
[3] = test system: ALL-8 ALL T-cell xenograft; assay: PPTP in vivo xenograft testing, ALL-8; design: species or system mice
[4] = Tolerability in xenograft-bearing mice; type: in vivo
[5] = test system: ALL-31 tertiary T-cell ALL xenograft; assay: PPTP in vivo xenograft testing, ALL-31; design: species or system mice
[6] = test system: Rh28 ALV rhabdomyosarcoma xenograft; assay: PPTP in vivo xenograft testing, Rh28; design: species or system mice
BT-29 rhabdoid xenograft = assay: PPTP in vivo xenograft testing, BT-29; design: species or system mice
[7] = cited from earlier work
[8] = test system: D645 glioblastoma xenograft; assay: PPTP in vivo xenograft testing, D645; design: species or system mice
[9] = test system: Rh30R ALV rhabdomyosarcoma xenograft; assay: PPTP in vivo xenograft testing, Rh30R; design: species or system mice
[10] = test system: NB-SD neuroblastoma xenograft; assay: PPTP in vivo xenograft testing, NB-SD; design: species or system mice
[11] = 1 mg/kg IP Q4Dx3 repeated at Day 21
[12] = 1.5 mg/kg IP Q4Dx3 repeated at Day 21

## C=C1C[C@@H]2CC[C@@]34C[C@H]5O[C@H]6[C@@H](O3)[C@H]3O[C@H](CC[C@@H]3O[C@H]6[C@H]5O4)CC(=O)C[C@@H]3[C@@H](OC)[C@@H](C[C@H](O)CN)O[C@H]3C[C@H]3O[C@@H](CC[C@@H]1O2)C[C@@H](C)C3=C [Eribulin]
[1]; [11]
  Time to event: 26.3
[1]; 1 mg/kg IP, Day 21 or earlier
  Tumor volume T/C: 0.61
EW8 Ewing xenograft; 1 mg/kg IP
  EFS activity: High (High activity requires: (a) an EFS T/C >2; (b) a significant difference in EFS distributions, and (c) a net reduction in median tumor volume for animals in the treated group at the end of treatment as compared to at treatment initiation)
  Response activity: High (A high level of activity is indicated by a score of 6 or more)
  T/C volume activity: High (High activity = T/C ≤0.15)
EW8 Ewing xenograft; [11]
  EFS T/C: >3.1
  Median final RTV (CD45%): 0.0
EW8 Ewing xenograft; 1 mg/kg IP, Day 21 or earlier
  Tumor volume T/C: 0.00
[2]; 1 mg/kg IP
  EFS activity: High (High activity requires: (a) an EFS T/C >2; (b) a significant difference in EFS distributions, and (c) a net reduction in median tumor volume for animals in the treated group at the end of treatment as compared to at treatment initiation)
  Response activity: High (A high level of activity is indicated by a score of 6 or more)
  T/C volume activity: High (High activity = T/C ≤0.15)
[2]; [11]
  EFS T/C: >3.8
  Median final RTV (CD45%): 0.0
[2]; 1 mg/kg IP, Day 21 or earlier
  Tumor volume T/C: 0.08
[3]; 1.5 mg/kg IP
  EFS activity: High (High activity requires: (a) an EFS T/C >2; (b) a significant difference in EFS distributions, and (c) a net reduction in median tumor volume for animals in the treated group at the end of treatment as compared to at treatment initiation)
  Response activity: High (A high level of activity is indicated by a score of 6 or more)
[3]; [12]
  EFS T/C: >7.9
[3]; CD45%, 1.5 mg/kg IP
  Median final RTV (CD45%): 0.0%
[4]; 6 of 409 treated mice, control 1 of 401
  toxicity rate in the treated groups: 1.5%
[4]; NOD-SCID, mouse, in vivo, ip
  MTD at 6 weeks: 1.5 mg/kg
[5]; 1.5 mg/kg IP
  EFS activity: Int (Intermediate activity = criteria (a) and (b) above, but not having a net reduction in median tumor volume for treated animals at the end of the study)
  Response activity: High (A high level of activity is indicated by a score of 6 or more)
[5]; [12]
  EFS T/C: >3.7
[5]; CD45%, 1.5 mg/kg IP
  Median final RTV (CD45%): 12.9%
[6]; 1 mg/kg IP
  EFS activity: High (High activity requires: (a) an EFS T/C >2; (b) a significant difference in EFS distributions, and (c) a net reduction in median tumor volume for animals in the treated group at the end of treatment as compared to at treatment initiation)
  Response activity: High (A high level of activity is indicated by a score of 6 or more)
  T/C volume activity: Int (Intermediate activity = T/C ≤0.45 but >0.15)
[6]; [11]
  EFS T/C: >2.4
  Median final RTV (CD45%): 0.0
[6]; 1 mg/kg IP, Day 21 or earlier
  Tumor volume T/C: 0.29
BT-29 rhabdoid xenograft; 1 mg/kg IP
  Response activity: Int (intermediate activity by a score of ≥2 but <6)
  T/C volume activity: Low (Low activity = T/C >0.45)
BT-29 rhabdoid xenograft; [11]
  EFS T/C: >1.6
  Median final RTV (CD45%): >4
BT-29 rhabdoid xenograft; 1 mg/kg IP, Day 21 or earlier
  Tumor volume T/C: 0.65
[7]; humans, 1.4 mg/m^2 dose
  systemic exposure (AUC): approximately 790 ng hour/ml
[7]; patients
  serum half-life: 37.8 h
[8]; 1 mg/kg IP
  EFS activity: Int (Intermediate activity = criteria (a) and (b) above, but not having a net reduction in median tumor volume for treated animals at the end of the study)
  Response activity: High (A high level of activity is indicated by a score of 6 or more)
  T/C volume activity: High (High activity = T/C ≤0.15)
[8]; [11]
  EFS T/C: >7.1
  Median final RTV (CD45%): 3.8
[8]; 1 mg/kg IP, Day 21 or earlier
  Tumor volume T/C: 0.07
[9]; 1 mg/kg IP
  EFS activity: High (High activity requires: (a) an EFS T/C >2; (b) a significant difference in EFS distributions, and (c) a net reduction in median tumor volume for animals in the treated group at the end of treatment as compared to at treatment initiation)
  Response activity: High (A high level of activity is indicated by a score of 6 or more)
  T/C volume activity: High (High activity = T/C ≤0.15)
[9]; [11]
  EFS T/C: >4.3
  Median final RTV (CD45%): 0.0
[9]; 1 mg/kg IP, Day 21 or earlier
  Tumor volume T/C: 0.11
[10]; 1 mg/kg IP
  EFS activity: Int (Intermediate activity = criteria (a) and (b) above, but not having a net reduction in median tumor volume for treated animals at the end of the study)
  Response activity: Int (intermediate activity by a score of ≥2 but <6)
  T/C volume activity: Low (Low activity = T/C >0.45)
[10]; [11]
  EFS T/C: 2.4
  Median final RTV (CD45%): >4
  Time to event: 17.5
[10]; 1 mg/kg IP, Day 21 or earlier
  Tumor volume T/C: 0.53
